# Source: article PMC5904222, “Synthesis and anticancer activity of multisubstituted purines and xanthines with one or two propynylthio and aminobutynylthio groups” (Medicinal Chemistry Research, 2018)
# What was measured:
# [1] = tested on: HFF-1 (human fibroblast cell line); experiment: WST-1 proliferation assay, normal fibroblasts HFF-1; assay type: cell-based; conditions: for IC50: read-out: Antiproliferative activity IC50 HFF-1
# Description: (§1) Compounds were evaluated for their anticancer activity using three cultured cell lines: SNB-19 (human glioblastoma, DSMZ - German Collection of Microorganisms and Cell Cultures, Braunschweig, Germany), C-32 (human amelanotic melanoma, ATCC-American Type Culture Collection, Manassas, VA, USA), MDA-MB-231 (human adenocarcinoma mammary gland, ATCC, Manassas, VA, USA), and HFF-1 (human fibroblast cell line, ATCC, Manassas, VA, USA). The cultured cells were kept at 37 °C and 5% CO2. The cells were seeded (1 × 10^4 cells/well/100 μL DMEM supplemented with 10% FCS and streptomycin and penicillin) using 96-well plates (Corning). The cells were counted in a hemocytometer (Burker’s chamber) using a phase contrast Olympus IX50 microscope equipped with Sony SSC-DC58 AP camera and Olympus DP10 digital camera.
# The antiproliferative effect of the compounds obtained from both the cancer and the normal cells was determined using the Cell Proliferation Reagent WST-1 assay (Roche Diagnostics, Mannheim, Germany). This colorimetric assay is based on the viable cell’s ability to cause the bright red-colored stable tetrazolium salt (2-(4-iodophenyl)-3-(4-nitrophenyl)-5-(2,4-disulfophenyl)-2H-tetrazolium, monosodium salt) to cleave to the dark red soluble formazan by cellular enzymes. An expansion in the number of viable cells results in an increase in the overall activity of mitochondrial dehydrogenases in the sample. An increase in the amount of formazan dye formed correlates to the number of metabolically active cells in the culture. The formazan dye produced by metabolically active cells is quantified by a scanning ELISA reader that measures the absorbance of the dye solution at appropriate wavelengths. The examined cells were exposed to the tested compounds for 72 h at various concentrations between 0.1 and 100 μg/mL (prepared initially at a concentration of 1 mg/mL in DMSO). […] The cells were incubated with WST-1 (10 μL) for 1 h and the absorbance of the samples was measured against a background control at 450 nm using a microplate reader with a reference wavelength at 600 nm. The results are expressed as the means of at least two independent experiments performed in triplicate. […] The IC50 values (a concentration of a compound that is required for 50% inhibition) were calculated from the dose–response relationship with respect to control.
# [2] = tested on: SNB-19 (human glioblastoma); experiment: WST-1 proliferation assay, SNB-19; assay type: cell-based; conditions: SNB-19 cells, 72 h exposure; for IC50: Homo sapiens, SNB-19, 72 h, read-out: Antiproliferative activity IC50 SNB-19
# Description: as §1
# (§2) The antiproliferative effect of the compounds obtained from both the cancer and the normal cells was determined using the Cell Proliferation Reagent WST-1 assay (Roche Diagnostics, Mannheim, Germany). This colorimetric assay is based on the viable cell’s ability to cause the bright red-colored stable tetrazolium salt (2-(4-iodophenyl)-3-(4-nitrophenyl)-5-(2,4-disulfophenyl)-2H-tetrazolium, monosodium salt) to cleave to the dark red soluble formazan by cellular enzymes. An expansion in the number of viable cells results in an increase in the overall activity of mitochondrial dehydrogenases in the sample. An increase in the amount of formazan dye formed correlates to the number of metabolically active cells in the culture. The formazan dye produced by metabolically active cells is quantified by a scanning ELISA reader that measures the absorbance of the dye solution at appropriate wavelengths. The examined cells were exposed to the tested compounds for 72 h at various concentrations between 0.1 and 100 μg/mL (prepared initially at a concentration of 1 mg/mL in DMSO). The control was performed in order to check that DMSO has no effect on the cells at the concentration used. The cells were incubated with WST-1 (10 μL) for 1 h and the absorbance of the samples was measured against a background control at 450 nm using a microplate reader with a reference wavelength at 600 nm. The results are expressed as the means of at least two independent experiments performed in triplicate. […] The IC50 values (a concentration of a compound that is required for 50% inhibition) were calculated from the dose–response relationship with respect to control.
# [3] = tested on: MDA-MB-231 (human adenocarcinoma mammary gland); experiment: WST-1 proliferation assay, MDA-MB-231; assay type: cell-based; conditions: MDA-MB-231 cells, 72 h exposure; for IC50: Homo sapiens, MDA-MB-231, 72 h, read-out: Antiproliferative activity IC50 MDA-MB-231
# Description: as §1, §2
# [4] = tested on: C-32 (human amelanotic melanoma); experiment: WST-1 proliferation assay, C-32; assay type: cell-based; conditions: C-32 cells, 72 h exposure; for IC50: Homo sapiens, C32, 72 h, read-out: Antiproliferative activity IC50 C-32
# Description: as §1, §2
# [5] = normal human fibroblasts HFF-1, 72 h exposure, WST-1
SMILES,"cytotoxicity on the normal human fibroblasts (HFF-1), in words [1]","IC50 [1, 5] [µg/mL]",IC50 [2] [µg/mL],melting point [°C],IC50 [3] [µg/mL],IC50 [4] [µg/mL],Antiproliferative activity IC50 SNB-19 [2] [µg/mL],Antiproliferative activity IC50 MDA-MB-231 [3] [µg/mL],Antiproliferative activity IC50 C-32 [4] [µg/mL],"Antiproliferative activity IC50 HFF-1 [1, 5] [µg/mL]"
"C#CCSc1nc(SCC#C)c2c(ncn2C)n1 [Compound 4, 2,6-di(prop-2-ynylthio)-7-methylpurine]",relatively weak cytotoxicity,10,15,162 to 164,–,–,–,–,–,–
"C#CCSc1nc(Cl)nc2nc(SCC#C)n(C)c12 [Compound 14, 2-chloro-6,8-di(prop-2-ynylthio)-7-methylpurine]",relatively weak cytotoxicity,20.1,–,161 to 163,10,270,–,–,–,–
"Cn1c(SCC#CCN2CCCCC2)nc2nc(Cl)nc(SCC#CCN3CCCCC3)c21 [Compound 15b, 2-Chloro-6,8-di(4-N-piperidinylbut-2-ynylthio)-7-methylpurine]",–,5.5,11.6,108 to 110,38.1,19.1,–,–,–,–
"Cn1c(SCC#CCN2CCCCC2)nc2c1c(=O)[nH]c(=O)n2C [Compound 10b, 8-(4-N-piperidinylbut-2-ynylthio)-3,7-dimethylxanthine]",–,30.4,166,223 to 225,364,355,–,–,–,–
"Cn1cnc2nc(Cl)nc(SCC#CCN3CCCCC3)c21 [Compound 2a, 2-Chloro-6-(4-N-piperidinylbut-2-ynylthio)-7-methylpurine]",–,35.4,28.8,122 to 124,33.4,21,–,–,–,–
"Cn1cnc2nc(Cl)nc(SCC#CCN3CCOCC3)c21 [Compound 2b, 2-Chloro-6-(4-N-morpholinylbut-2-ynylthio)-7-methylpurine]",–,20.1,35.4,168 to 169,66.3,125,–,–,–,–
"Cn1cnc2nc(SCC#CCN3CCCC3)nc(SCC#CCN3CCCC3)c21 [Compound 5a, 2,6-Di(4-N-pyrrolidinylbut-2-ynylthio)-7-methylpurine]",–,10,19.4,97 to 99,19.9,6.81,–,–,–,–
"CCN(CC)CC#CCSc1nc(SCC#CCN(CC)CC)c2c(ncn2C)n1 [Compound 5d, 2,6-Di(4-diethylaminobut-2-ynylthio)-7-methylpurine]",–,5.95,48.9,77 to 79,38.5,23.9,–,–,–,–
"C#CCSc1nc2c(c(=O)[nH]c(=O)n2C)n1C [Compound 9, 8-(prop-2-ynylthio)-3,7-dimethylxanthine]",–,154,> 100,252 to 253,> 100,> 100,191.10,169.34,103.46,–
"CCN(CC)CC#CCSc1nc(Cl)nc2nc(SCC#CCN(CC)CC)n(C)c12 [Compound 15d, 2-Chloro-6,8-di(diethylaminobut-2-ynylthio)-7-methylpurine]",cytotoxic,1,2.9 to 5.3,88 to 90,10,2.9 to 5.3,2.91,–,5.33,–
"Cn1c(SCC#CCN2CCOCC2)nc2c1c(=O)[nH]c(=O)n2C [Compound 10c, 8-(4-N-morpholinylbut-2-ynylthio)-3,7-dimethylxanthine]",–,5.87,< 1.7,174 to 176,6.54,223,1.69,–,–,–
"Cn1c(SCC#CCN2CCOCC2)nc2nc(Cl)nc(SCC#CCN3CCOCC3)c21 [Compound 15c, 2-Chloro-6,8-di(4-N-morpholinylbut-2-ynylthio)-7-methylpurine]",relatively weak cytotoxicity,36.4,26.1,112 to 113,74,–,–,–,–,–
"CCN(CC)CC#CCSc1nc2c(c(=O)[nH]c(=O)n2C)n1C [Compound 10d, 8-(4-diethylaminobut-2-ynylthio)-3,7-dimethylxanthine]",–,3.68,< 1.7,186 to 188,68.1,26.4,1.48,–,–,–
"CCN(CC)CC#CCSc1nc(Cl)nc2ncn(C)c12 [Compound 2c, 2-Chloro-6-(4-diethylaminobut-2-ynylthio)-7-methylpurine]",–,8.65,17.4,117 to 118,48.1,11.9,–,–,–,–
"Cn1cnc2nc(SCC#CCN3CCCCC3)nc(SCC#CCN3CCCCC3)c21 [Compound 5b, 2,6-Di(4-N-piperidinylbut-2-ynylthio)-7-methylpurine]",–,3.98,4.64,130 to 132,7.35,6.39,–,–,–,–
"Cn1c(SCC#CCN2CCCC2)nc2nc(Cl)nc(SCC#CCN3CCCC3)c21 [Compound 15a, 2-Chloro-6,8-di(4-N-pyrrolidinylbut-2-ynylthio)-7-methylpurine]",–,3.63,< 1,133 to 135,3.8 to 4.5,3.8 to 4.5,0.52,3.83,4.55,–
"N.N.[Cl][Pt][Cl] [Cisplatin, cisplatin, reference compound]",–,–,–,–,–,–,1.46,11.85,5.71,1.21
"Cn1cnc2nc(SCC#CCN3CCOCC3)nc(SCC#CCN3CCOCC3)c21 [Compound 5c, 2,6-Di(4-N-morpholinylbut-2-ynylthio)-7-methylpurine]",–,0.37,21.5,121 to 123,50.8,0.35,–,–,–,–
"Cn1c(SCC#CCN2CCCC2)nc2c1c(=O)[nH]c(=O)n2C [Compound 10a, 8-(4-N-pyrrolidinylbut-2-ynylthio)-3,7-dimethylxanthine]",–,34.3,177,195 to 197,472,51.1,–,–,–,–
